Source: article PMC7070407, “Moringin, A Stable Isothiocyanate from Moringa oleifera, Activates the Somatosensory and Pain Receptor TRPA1 Channel In Vitro” (Molecules, 2020)

How the values were obtained:
[1] = target: T1, human TRPV1 (Homo sapiens, UniProt Q8NER1); experiment: Elevation of intracellular Ca2+ (Fluo-4) in HEK-293 cells stably transfected with human TRPV1; format: cell-based
T1 construct: expressed in transfected cells; host or cells: HEK-293
Experimental: Assay of rat TRPA1, TRPV2, TRPV3, TRPV4, TRPM8 or human TRPV1 mediated elevation of intracellular Ca^2+ in transfected HEK-293 cells are been performed as described. Briefly, human embryonic kidney (HEK-293) cells, stably transfected with rat TRPA1, TRPV2, TRPV3, TRPV4, TRPM8 or human TRPV1 (selected by Geneticin 600 μg mL^−1) or not transfected, were cultured in EMEM + 2 mM Glutamine + 1% Non-Essential Amino Acids (NEAA) + 10% FBS and maintained at 37 °C with 5% CO2. Stable transfections were checked by quantitative real-time polymerase chain reaction (PCR), quantitative real-time PCR was performed by an iCycler-iQ (Bio-Rad, Hercules, CA, USA) in a 20 μL reaction mixture containing the following: 10 μL iQ SYBR Green Supermix 2X (Bio-Rad), 20 ng of cDNA (calculated on the basis of the retro-transcribed RNA), and 330 nM for each primer. Optimized primers for SYBR Green analysis (and relative TaOpt) and optimum annealing temperatures were designed by Allele-Id software version 7.0 (Biosoft International, Palo Alto, CA, USA) and were synthesized (HPLC-purification grade) by MWG-Biotech AG (Ebersberg, Germany). Assays were performed in quadruplicate (maximal ΔCt of replicate samples, <0.5). Relative expression analysis, correct for PCR efficiency and normalized with respect to reference genes β-actin and glyceraldehyde 3-phosphate dehydrogenase, was performed by GENEX software (Bio-Rad). […] The day of the experiment the cells were loaded with Fluo-4 AM (4 μM in DMSO containing 0.02% Pluronic F-127) for 1 h in the dark at room temperature, rinsed and resuspended in Tyrode’s solution (145 mM NaCl, 2.5 mM KCl, 1.5 mM CaCl2, 1.2 mM MgCl2, 10 mM D-glucose, and 10 mM HEPES, pH 7.4), finally transferred to a quartz cuvette of a spectrofluorimeter (Perkin-Elmer LS50B; λEX = 488 nm, λEM = 516 nm) equipped with PTP-1 Fluorescence Peltier System (PerkinElmer Life and Analytical Sciences, Waltham, MA, USA) under continuous stirring. Cell fluorescence before and after the addition of various concentrations of test compounds and extracts were measured normalizing the effects against the response to ionomycin (4 µM). The values of the effect on [Ca^2+]i in HEK-293 cells not transfected are used as baseline and subtracted from the values obtained from transfected cells. […] The potency of the compounds (EC50 values) are determined as the concentration required to produce half-maximal increases in [Ca^2+]i. In TRPV3 assay TRPV3-expressing HEK293 cells were first sensitized with the structurally unrelated agonist 2-aminoethoxydiphenyl borate (100 μM). Antagonist/desensitizing behaviour is evaluated against the agonist of the TRP analyzed by adding the compounds directly in the quartz cuvette 5 min before stimulation of cells with the agonist. […]

[2] = target: T2, rat TRPM8 (Rattus norvegicus, UniProt Q8R455); experiment: Elevation of intracellular Ca2+ (Fluo-4) in HEK-293 cells stably transfected with rat TRPM8; format: cell-based
T2 construct: expressed in transfected cells; host or cells: HEK-293
Experimental: (§1) Assay of rat TRPA1, TRPV2, TRPV3, TRPV4, TRPM8 or human TRPV1 mediated elevation of intracellular Ca^2+ in transfected HEK-293 cells are been performed as described. Briefly, human embryonic kidney (HEK-293) cells, stably transfected with rat TRPA1, TRPV2, TRPV3, TRPV4, TRPM8 or human TRPV1 (selected by Geneticin 600 μg mL^−1) or not transfected, were cultured in EMEM + 2 mM Glutamine + 1% Non-Essential Amino Acids (NEAA) + 10% FBS and maintained at 37 °C with 5% CO2. Stable transfections were checked by quantitative real-time polymerase chain reaction (PCR), quantitative real-time PCR was performed by an iCycler-iQ (Bio-Rad, Hercules, CA, USA) in a 20 μL reaction mixture containing the following: 10 μL iQ SYBR Green Supermix 2X (Bio-Rad), 20 ng of cDNA (calculated on the basis of the retro-transcribed RNA), and 330 nM for each primer. […] The day of the experiment the cells were loaded with Fluo-4 AM (4 μM in DMSO containing 0.02% Pluronic F-127) for 1 h in the dark at room temperature, rinsed and resuspended in Tyrode’s solution (145 mM NaCl, 2.5 mM KCl, 1.5 mM CaCl2, 1.2 mM MgCl2, 10 mM D-glucose, and 10 mM HEPES, pH 7.4), finally transferred to a quartz cuvette of a spectrofluorimeter (Perkin-Elmer LS50B; λEX = 488 nm, λEM = 516 nm) equipped with PTP-1 Fluorescence Peltier System (PerkinElmer Life and Analytical Sciences, Waltham, MA, USA) under continuous stirring. […]

[3] = target: T3, rat TRPV3 (Rattus norvegicus, UniProt Q4QYD9); experiment: Elevation of intracellular Ca2+ (Fluo-4) in HEK-293 cells stably transfected with rat TRPV3; format: cell-based; settings: TRPV3, against reference agonist thymol 100 μM
T3 construct: expressed in transfected cells; host or cells: HEK-293
T3 sequence (Q4QYD9 1-791): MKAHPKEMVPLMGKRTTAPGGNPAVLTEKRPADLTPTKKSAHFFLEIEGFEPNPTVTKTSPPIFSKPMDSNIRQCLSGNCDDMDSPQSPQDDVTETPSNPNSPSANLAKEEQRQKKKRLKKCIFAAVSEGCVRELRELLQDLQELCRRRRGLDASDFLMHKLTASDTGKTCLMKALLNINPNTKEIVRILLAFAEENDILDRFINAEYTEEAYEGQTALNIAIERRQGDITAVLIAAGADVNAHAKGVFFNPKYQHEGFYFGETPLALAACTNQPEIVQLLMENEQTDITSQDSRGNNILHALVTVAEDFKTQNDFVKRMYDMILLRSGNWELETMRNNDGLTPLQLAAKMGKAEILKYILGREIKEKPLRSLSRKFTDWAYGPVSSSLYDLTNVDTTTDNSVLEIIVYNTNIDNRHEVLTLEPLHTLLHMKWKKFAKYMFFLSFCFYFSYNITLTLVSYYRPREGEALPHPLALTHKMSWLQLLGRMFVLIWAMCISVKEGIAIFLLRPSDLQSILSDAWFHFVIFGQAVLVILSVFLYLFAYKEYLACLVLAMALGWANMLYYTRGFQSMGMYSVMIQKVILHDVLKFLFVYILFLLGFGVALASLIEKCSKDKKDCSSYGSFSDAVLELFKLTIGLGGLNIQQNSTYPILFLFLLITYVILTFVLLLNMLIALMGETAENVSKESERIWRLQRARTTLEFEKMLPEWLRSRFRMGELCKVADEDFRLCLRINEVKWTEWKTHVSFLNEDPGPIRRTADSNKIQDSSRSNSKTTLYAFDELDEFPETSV
Experimental: as §1

[4] = target: T4, rat TRPV4 (Rattus norvegicus, UniProt Q9ERZ8); experiment: Elevation of intracellular Ca2+ (Fluo-4) in HEK-293 cells stably transfected with rat TRPV4; format: cell-based
T4 construct: expressed in transfected cells; host or cells: HEK-293
Experimental: as §1

[5] = target: T5, rat TRPA1 (Rattus norvegicus, UniProt Q6RI86); experiment: Elevation of intracellular Ca2+ (Fluo-4) in HEK-293 cells stably transfected with rat TRPA1; agonist and antagonist/desensitizing behaviour; format: cell-based
T5 construct: expressed in transfected cells; host or cells: HEK-293
Experimental: Assay of rat TRPA1, TRPV2, TRPV3, TRPV4, TRPM8 or human TRPV1 mediated elevation of intracellular Ca^2+ in transfected HEK-293 cells are been performed as described. Briefly, human embryonic kidney (HEK-293) cells, stably transfected with rat TRPA1, TRPV2, TRPV3, TRPV4, TRPM8 or human TRPV1 (selected by Geneticin 600 μg mL^−1) or not transfected, were cultured in EMEM + 2 mM Glutamine + 1% Non-Essential Amino Acids (NEAA) + 10% FBS and maintained at 37 °C with 5% CO2. Stable transfections were checked by quantitative real-time polymerase chain reaction (PCR), quantitative real-time PCR was performed by an iCycler-iQ (Bio-Rad, Hercules, CA, USA) in a 20 μL reaction mixture containing the following: 10 μL iQ SYBR Green Supermix 2X (Bio-Rad), 20 ng of cDNA (calculated on the basis of the retro-transcribed RNA), and 330 nM for each primer. Optimized primers for SYBR Green analysis (and relative TaOpt) and optimum annealing temperatures were designed by Allele-Id software version 7.0 (Biosoft International, Palo Alto, CA, USA) and were synthesized (HPLC-purification grade) by MWG-Biotech AG (Ebersberg, Germany). Assays were performed in quadruplicate (maximal ΔCt of replicate samples, <0.5). Relative expression analysis, correct for PCR efficiency and normalized with respect to reference genes β-actin and glyceraldehyde 3-phosphate dehydrogenase, was performed by GENEX software (Bio-Rad). […] The day of the experiment the cells were loaded with Fluo-4 AM (4 μM in DMSO containing 0.02% Pluronic F-127) for 1 h in the dark at room temperature, rinsed and resuspended in Tyrode’s solution (145 mM NaCl, 2.5 mM KCl, 1.5 mM CaCl2, 1.2 mM MgCl2, 10 mM D-glucose, and 10 mM HEPES, pH 7.4), finally transferred to a quartz cuvette of a spectrofluorimeter (Perkin-Elmer LS50B; λEX = 488 nm, λEM = 516 nm) equipped with PTP-1 Fluorescence Peltier System (PerkinElmer Life and Analytical Sciences, Waltham, MA, USA) under continuous stirring. Cell fluorescence before and after the addition of various concentrations of test compounds and extracts were measured normalizing the effects against the response to ionomycin (4 µM). The values of the effect on [Ca^2+]i in HEK-293 cells not transfected are used as baseline and subtracted from the values obtained from transfected cells. […] The potency of the compounds (EC50 values) are determined as the concentration required to produce half-maximal increases in [Ca^2+]i. In TRPV3 assay TRPV3-expressing HEK293 cells were first sensitized with the structurally unrelated agonist 2-aminoethoxydiphenyl borate (100 μM). Antagonist/desensitizing behaviour is evaluated against the agonist of the TRP analyzed by adding the compounds directly in the quartz cuvette 5 min before stimulation of cells with the agonist. […] In order to assess functional antagonism of TRPA1 channels, AP18, 4-(4-chlorophenyl)-3-methyl-3-buten-2-one oxime […] Dose-response curve fitting (sigmoidal dose-response variable slope) and parameter estimation were performed with Graph-Pad Prism8® (GraphPad Software Inc., San Diego, CA, USA). All determinations were performed at least in triplicate.

[6] = test system: not transfected HEK-293 cells; experiment: Effect on [Ca2+]i in not transfected HEK-293 cells (baseline); format: cell-based, human
Experimental: Compound and extracts’ effects on intracellular Ca^2+ concentration ([Ca^2+]i) were determined using the selective intracellular fluorescent probe for Ca^2+ Fluo-4. Assay of rat TRPA1, TRPV2, TRPV3, TRPV4, TRPM8 or human TRPV1 mediated elevation of intracellular Ca^2+ in transfected HEK-293 cells are been performed as described. Briefly, human embryonic kidney (HEK-293) cells, stably transfected with rat TRPA1, TRPV2, TRPV3, TRPV4, TRPM8 or human TRPV1 (selected by Geneticin 600 μg mL^−1) or not transfected, were cultured in EMEM + 2 mM Glutamine + 1% Non-Essential Amino Acids (NEAA) + 10% FBS and maintained at 37 °C with 5% CO2. Stable transfections were checked by quantitative real-time polymerase chain reaction (PCR), quantitative real-time PCR was performed by an iCycler-iQ (Bio-Rad, Hercules, CA, USA) in a 20 μL reaction mixture containing the following: 10 μL iQ SYBR Green Supermix 2X (Bio-Rad), 20 ng of cDNA (calculated on the basis of the retro-transcribed RNA), and 330 nM for each primer. […] Cell fluorescence before and after the addition of various concentrations of test compounds and extracts were measured normalizing the effects against the response to ionomycin (4 µM). […] The potency of the compounds (EC50 values) are determined as the concentration required to produce half-maximal increases in [Ca^2+]i. […]

[7] = test system: Amyotrophic Lateral Sclerosis (ALS) transgenic model; design: method as in PMID 26075221; settings: cited from earlier work
[8] = target: T6, rat TRPV2 (Rattus norvegicus, UniProt Q9WUD2); experiment: Elevation of intracellular Ca2+ (Fluo-4) in HEK-293 cells stably transfected with rat TRPV2; format: cell-based
T6 construct: expressed in transfected cells; host or cells: HEK-293
T6 sequence (Q9WUD2 1-761): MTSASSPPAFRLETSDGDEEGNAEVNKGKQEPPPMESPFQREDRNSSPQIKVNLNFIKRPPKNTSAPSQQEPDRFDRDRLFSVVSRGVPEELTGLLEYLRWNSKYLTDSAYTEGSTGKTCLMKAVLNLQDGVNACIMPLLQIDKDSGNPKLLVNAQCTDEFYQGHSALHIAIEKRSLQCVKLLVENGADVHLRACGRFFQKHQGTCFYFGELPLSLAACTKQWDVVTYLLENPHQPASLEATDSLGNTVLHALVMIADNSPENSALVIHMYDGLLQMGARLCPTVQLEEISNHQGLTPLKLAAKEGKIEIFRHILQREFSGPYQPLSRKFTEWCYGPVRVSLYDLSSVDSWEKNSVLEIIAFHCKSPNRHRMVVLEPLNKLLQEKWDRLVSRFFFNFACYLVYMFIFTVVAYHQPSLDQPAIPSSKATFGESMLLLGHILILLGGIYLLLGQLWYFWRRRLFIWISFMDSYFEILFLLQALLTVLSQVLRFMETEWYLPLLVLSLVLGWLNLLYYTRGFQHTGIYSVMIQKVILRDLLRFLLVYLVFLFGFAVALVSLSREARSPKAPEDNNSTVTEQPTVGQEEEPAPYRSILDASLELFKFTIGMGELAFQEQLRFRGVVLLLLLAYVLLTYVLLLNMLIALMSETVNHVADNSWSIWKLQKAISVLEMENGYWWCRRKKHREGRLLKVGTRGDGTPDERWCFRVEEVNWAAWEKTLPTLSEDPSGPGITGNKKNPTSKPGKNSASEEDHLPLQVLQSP
Experimental: as §1

T1 sequence (Q8NER1 whole entry): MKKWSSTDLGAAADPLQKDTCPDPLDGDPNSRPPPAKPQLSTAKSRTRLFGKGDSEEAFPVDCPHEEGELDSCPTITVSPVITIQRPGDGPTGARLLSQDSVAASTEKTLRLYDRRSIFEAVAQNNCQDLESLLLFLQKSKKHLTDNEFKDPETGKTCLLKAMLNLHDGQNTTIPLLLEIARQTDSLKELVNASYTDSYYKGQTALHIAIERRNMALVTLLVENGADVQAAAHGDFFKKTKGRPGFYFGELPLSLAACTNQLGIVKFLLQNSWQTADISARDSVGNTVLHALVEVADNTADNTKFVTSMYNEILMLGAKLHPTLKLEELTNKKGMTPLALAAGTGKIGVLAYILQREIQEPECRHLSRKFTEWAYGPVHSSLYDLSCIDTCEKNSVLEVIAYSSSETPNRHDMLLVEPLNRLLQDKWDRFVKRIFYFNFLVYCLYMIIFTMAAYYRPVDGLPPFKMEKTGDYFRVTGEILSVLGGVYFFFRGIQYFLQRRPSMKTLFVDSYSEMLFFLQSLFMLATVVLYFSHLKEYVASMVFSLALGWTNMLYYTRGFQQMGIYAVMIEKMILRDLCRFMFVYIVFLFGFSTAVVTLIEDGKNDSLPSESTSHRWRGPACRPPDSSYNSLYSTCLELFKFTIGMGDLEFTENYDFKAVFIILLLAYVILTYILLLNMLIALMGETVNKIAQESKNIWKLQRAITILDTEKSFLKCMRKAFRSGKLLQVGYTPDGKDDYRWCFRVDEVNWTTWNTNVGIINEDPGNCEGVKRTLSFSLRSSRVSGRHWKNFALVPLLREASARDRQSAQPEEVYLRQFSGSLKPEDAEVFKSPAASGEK
T5 sequence (Q6RI86 whole entry): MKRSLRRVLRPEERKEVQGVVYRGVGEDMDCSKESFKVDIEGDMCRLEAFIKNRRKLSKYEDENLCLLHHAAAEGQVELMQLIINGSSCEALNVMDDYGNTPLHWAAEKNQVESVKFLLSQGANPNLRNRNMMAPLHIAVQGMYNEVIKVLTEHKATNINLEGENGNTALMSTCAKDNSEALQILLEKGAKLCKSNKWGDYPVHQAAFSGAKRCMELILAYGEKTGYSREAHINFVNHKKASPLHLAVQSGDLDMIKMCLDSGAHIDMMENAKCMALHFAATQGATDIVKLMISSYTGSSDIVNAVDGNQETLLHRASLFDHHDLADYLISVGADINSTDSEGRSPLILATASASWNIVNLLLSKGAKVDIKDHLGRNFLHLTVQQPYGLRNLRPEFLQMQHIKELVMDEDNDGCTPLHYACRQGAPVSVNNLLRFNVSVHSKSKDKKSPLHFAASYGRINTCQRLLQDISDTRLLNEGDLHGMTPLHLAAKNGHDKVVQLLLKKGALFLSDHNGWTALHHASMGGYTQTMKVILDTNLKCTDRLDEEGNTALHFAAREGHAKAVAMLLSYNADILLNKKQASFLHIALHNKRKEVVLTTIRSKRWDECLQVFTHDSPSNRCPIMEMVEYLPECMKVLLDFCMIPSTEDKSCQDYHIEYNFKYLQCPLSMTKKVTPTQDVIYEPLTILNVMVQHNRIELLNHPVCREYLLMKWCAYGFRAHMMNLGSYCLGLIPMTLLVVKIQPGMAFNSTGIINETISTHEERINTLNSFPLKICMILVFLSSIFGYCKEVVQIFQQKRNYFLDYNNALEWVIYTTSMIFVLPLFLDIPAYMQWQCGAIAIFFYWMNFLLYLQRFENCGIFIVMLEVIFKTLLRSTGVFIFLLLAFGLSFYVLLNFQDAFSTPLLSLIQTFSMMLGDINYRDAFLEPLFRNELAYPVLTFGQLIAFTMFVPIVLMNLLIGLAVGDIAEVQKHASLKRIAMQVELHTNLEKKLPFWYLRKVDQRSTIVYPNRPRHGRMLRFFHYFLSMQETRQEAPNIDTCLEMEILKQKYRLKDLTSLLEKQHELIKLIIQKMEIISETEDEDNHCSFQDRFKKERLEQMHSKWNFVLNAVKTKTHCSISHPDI
T4 sequence (Q9ERZ8 whole entry): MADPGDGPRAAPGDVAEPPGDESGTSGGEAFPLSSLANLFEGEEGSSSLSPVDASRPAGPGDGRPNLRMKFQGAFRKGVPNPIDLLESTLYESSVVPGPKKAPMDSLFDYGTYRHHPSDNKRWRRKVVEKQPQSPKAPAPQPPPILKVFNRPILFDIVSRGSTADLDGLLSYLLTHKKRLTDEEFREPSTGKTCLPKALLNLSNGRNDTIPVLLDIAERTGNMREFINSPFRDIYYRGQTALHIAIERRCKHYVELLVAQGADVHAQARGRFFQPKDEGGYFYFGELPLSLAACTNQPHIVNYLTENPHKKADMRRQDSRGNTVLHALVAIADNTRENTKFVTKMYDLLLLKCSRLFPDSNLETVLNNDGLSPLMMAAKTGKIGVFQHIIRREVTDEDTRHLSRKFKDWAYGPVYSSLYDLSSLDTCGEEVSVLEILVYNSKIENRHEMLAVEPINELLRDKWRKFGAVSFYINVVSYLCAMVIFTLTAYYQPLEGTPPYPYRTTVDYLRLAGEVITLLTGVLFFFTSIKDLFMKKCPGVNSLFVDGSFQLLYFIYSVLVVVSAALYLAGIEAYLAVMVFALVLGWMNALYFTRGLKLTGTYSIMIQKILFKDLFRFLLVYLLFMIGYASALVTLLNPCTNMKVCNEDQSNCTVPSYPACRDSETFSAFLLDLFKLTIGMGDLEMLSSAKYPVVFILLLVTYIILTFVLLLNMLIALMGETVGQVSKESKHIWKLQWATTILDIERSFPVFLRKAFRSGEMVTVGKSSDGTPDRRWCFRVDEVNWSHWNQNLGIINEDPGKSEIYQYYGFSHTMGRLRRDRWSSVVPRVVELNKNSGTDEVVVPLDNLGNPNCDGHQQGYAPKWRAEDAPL
T2 sequence (Q8R455 whole entry): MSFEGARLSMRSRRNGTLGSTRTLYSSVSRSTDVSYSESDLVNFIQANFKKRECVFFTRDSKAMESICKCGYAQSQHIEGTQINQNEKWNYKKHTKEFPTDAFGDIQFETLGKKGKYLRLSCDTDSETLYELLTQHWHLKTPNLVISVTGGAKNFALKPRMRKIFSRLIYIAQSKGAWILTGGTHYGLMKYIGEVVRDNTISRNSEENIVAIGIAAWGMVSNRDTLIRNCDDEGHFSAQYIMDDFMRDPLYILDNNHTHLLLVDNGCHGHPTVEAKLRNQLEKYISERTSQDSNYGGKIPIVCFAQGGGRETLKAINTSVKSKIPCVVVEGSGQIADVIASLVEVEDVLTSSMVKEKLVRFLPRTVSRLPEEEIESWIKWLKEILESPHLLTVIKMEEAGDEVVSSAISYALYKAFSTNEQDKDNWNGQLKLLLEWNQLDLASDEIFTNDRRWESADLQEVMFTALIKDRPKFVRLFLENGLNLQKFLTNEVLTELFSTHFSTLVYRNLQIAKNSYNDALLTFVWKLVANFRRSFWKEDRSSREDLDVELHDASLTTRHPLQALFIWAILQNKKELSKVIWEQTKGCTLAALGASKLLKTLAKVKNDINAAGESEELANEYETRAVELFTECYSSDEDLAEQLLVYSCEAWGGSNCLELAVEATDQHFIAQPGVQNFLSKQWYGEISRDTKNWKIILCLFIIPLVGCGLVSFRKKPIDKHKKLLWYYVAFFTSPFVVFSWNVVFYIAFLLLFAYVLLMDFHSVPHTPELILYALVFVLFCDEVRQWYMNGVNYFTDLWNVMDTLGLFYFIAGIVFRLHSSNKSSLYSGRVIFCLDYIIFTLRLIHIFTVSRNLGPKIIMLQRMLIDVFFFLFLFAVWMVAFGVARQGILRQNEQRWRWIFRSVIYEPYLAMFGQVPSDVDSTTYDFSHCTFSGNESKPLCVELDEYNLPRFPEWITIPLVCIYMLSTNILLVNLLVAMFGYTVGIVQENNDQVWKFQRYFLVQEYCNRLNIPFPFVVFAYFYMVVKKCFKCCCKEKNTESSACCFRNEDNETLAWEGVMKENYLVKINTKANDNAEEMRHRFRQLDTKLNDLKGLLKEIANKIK

Structure (SMILES): C[C@@H]1O[C@@H](Oc2ccc(CN=C=S)cc2)[C@H](O)[C@H](O)[C@H]1O [Moringin, 4-[(α-L-rhamnosyloxy)benzyl]isothiocyanate]
- EC50 [1]: 20.4 ± 1.3 µM
- IC50 [1]: > 50 µM
- Efficacy (% Ionomycin 4 µM) ([1]; TRPV1): 46.8 ± 0.7%
- Potency EC50 ([1]; TRPV1): weak
- IC50 [2]: > 100 µM
- IC50 [3]: > 100 µM
- IC50 [4]: > 100 µM
- EC50 [5]: 3.14 ± 0.16 µM
- IC50 [5]: 3.6 ± 0.05 µM
- Effect of AITC 100 μM administered after pre-incubation with moringin ([5]; TRPA1-HEK293 cells, pre-incubation with moringin 50 μM): completely inhibited
- Efficacy (% AITC 100 µM) ([5]; rTRPA1-HEK-293, percentage of the effect on [Ca2+]i of AITC 100 µM): 102.6 ± 1.1%
- Increase of [Ca2+]i in not transfected HEK-293 cells, % of the response in rTRPA1 HEK-293 cells [6]: < 10%
- Delay of the disease onset [7]: about two weeks
- IC50 [8]: > 100 µM
